Results taken from patent US20250296959A1, “B7-H3 TARGETING PEPTIDES AND CONSTRUCTS THEREOF” (Mariana Oncology Inc., priority 2024, published 2025).
Starred links: 1 amine or outer side, 2 acyl side, 3 side chain; linkers in the order of their positions; H or OH if unused. Positions of bridges follow the written chain, without caps; N, C: chain ends. Non-standard residues stand in square brackets, D forms with d. Residues, ends and D or L forms follow the SMILES beside them. *: point of attachment. Ala(piperidin-4-yl) = O=C([C@H](CC1CCN([*:3])CC1)N[*:1])[*:2]; DOTA = O=C(O)CN1CCN(CC(=O)O)CCN(CC(=O)*)CCN(CC(=O)O)CC1; Phe(4-COOH) = N[C@@H](Cc1ccc(C(=O)O)cc1)C(=O)O; Trp(5-F) = N[C@@H](Cc1c[nH]c2ccc(F)cc12)C(=O)O; AEF = NCCOc1ccc(C[C@H](N)C(=O)O)cc1; Val(3-OH) = CC(C)(O)[C@H](N)C(=O)O; Chg = N[C@H](C(=O)O)C1CCCCC1; Tle = CC(C)(C)[C@H](N)C(=O)O; hLeu = CC(C)CC[C@H](N)C(=O)O; NMeS = CN[C@@H](CO)C(=O)O; αMeS = C[C@](N)(CO)C(=O)O; Orn = NCCC[C@H](N)C(=O)O; Sar = CNCC(=O)O

Target: T1, human 4lg B7-H3 (Homo sapiens, UniProt Q5ZPR3)
T1 sequence (Q5ZPR3 29-534): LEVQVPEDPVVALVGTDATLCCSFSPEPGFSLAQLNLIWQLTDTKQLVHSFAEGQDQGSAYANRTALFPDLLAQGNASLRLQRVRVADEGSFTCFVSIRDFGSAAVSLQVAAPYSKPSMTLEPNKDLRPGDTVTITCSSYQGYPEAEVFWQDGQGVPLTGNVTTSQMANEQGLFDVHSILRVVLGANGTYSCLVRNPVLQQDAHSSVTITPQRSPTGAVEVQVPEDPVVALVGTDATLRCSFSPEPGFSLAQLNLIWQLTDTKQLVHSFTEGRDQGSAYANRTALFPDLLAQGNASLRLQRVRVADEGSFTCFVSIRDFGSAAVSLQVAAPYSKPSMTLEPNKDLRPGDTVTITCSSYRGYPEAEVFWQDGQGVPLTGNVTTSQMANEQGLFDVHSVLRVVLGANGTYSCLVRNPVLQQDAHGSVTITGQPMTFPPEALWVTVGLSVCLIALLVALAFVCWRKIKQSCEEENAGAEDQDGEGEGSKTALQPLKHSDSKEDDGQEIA
Assay: Affinity determination by surface plasmon resonance (SPR) to 4Ig B7-H3
Conditions: SPR KD—25° C., 4Ig B7-H3; 25° C. flow cell temperature

Kd	SMILES
10 to 100 nM	CC(=O)N[C@@H](CCC(C)C)C(=O)N[C@@H](Cc1ccc(O)cc1)C(=O)N[C@H]1CSSC[C@@H](C(=O)N[C@@H](Cc2c[nH]c3ccccc23)C(=O)N[C@@H](Cc2ccccc2)C(=O)N[C@H](C(N)=O)[C@@H](C)O)NC(=O)[C@H](Cc2ccc(O)cc2)NC(=O)[C@H](CCCCNC(=O)CN2CCN(CC(=O)O)CCN(CC(=O)O)CCN(CC(=O)O)CC2)NC(=O)[C@H](CC(=O)O)NC(=O)[C@H](Cc2ccc(O)cc2)NC(=O)[C@H](CCCCN)NC(=O)CNC(=O)[C@H](C(C)C)NC1=O [compound 143, Ac-hLeu-Y-C-V-G-K-Y-D-Lys(DOTA)-Y-C-W-F-Thr-CONH2] (Ac-[hLeu]YCVGKYDK(DOTA)YCWFT-NH2; disulfide 3-11)
10 to 100 nM	CC(=O)N[C@@H](CCC(C)C)C(=O)N[C@@H](Cc1ccc(O)cc1)C(=O)N[C@H]1CSSC[C@@H](C(=O)N[C@@H](Cc2c[nH]c3ccccc23)C(=O)N[C@@H](Cc2ccccc2)C(=O)N[C@H](C(N)=O)[C@@H](C)O)NC(=O)[C@H](Cc2ccc(O)cc2)NC(=O)[C@H](C(C)C)NC(=O)[C@H](CC(=O)O)NC(=O)[C@H](CCCCNC(=O)CN2CCN(CC(=O)O)CCN(CC(=O)O)CCN(CC(=O)O)CC2)NC(=O)[C@H](CCCCN)NC(=O)CNC(=O)[C@H](C(C)C)NC1=O [compound 144, Ac-hLeu-Y-C-V-G-K-Lys(DOTA)-D-V-Y-C-W-F-Thr-CONH2] (Ac-[hLeu]YCVGKK(DOTA)DVYCWFT-NH2; disulfide 3-11)
1 to 10 nM	CC(=O)N[C@@H](CCC(C)C)C(=O)N[C@@H](Cc1ccc(O)cc1)C(=O)N[C@H]1CSSC[C@@H](C(=O)N[C@@H](Cc2c[nH]c3ccccc23)C(=O)N[C@@H](Cc2ccccc2)C(=O)N[C@H](C(N)=O)[C@@H](C)O)NC(=O)[C@H](Cc2ccc(O)cc2)NC(=O)[C@H](C(C)C)NC(=O)[C@H](CC(=O)O)NC(=O)[C@H](Cc2ccc(O)cc2)NC(=O)[C@H](CCCCNC(=O)CN2CCN(CC(=O)O)CCN(CC(=O)O)CCN(CC(=O)O)CC2)NC(=O)CNC(=O)[C@H](C(C)C)NC1=O [compound 145, Ac-hLeu-Y-C-V-G-Lys(DOTA)-Y-D-V-Y-C-W-F-Thr-CONH2] (Ac-[hLeu]YCVGK(DOTA)YDVYCWFT-NH2; disulfide 3-11)
1 to 10 nM	CC(=O)N[C@@H](CCC(C)C)C(=O)N[C@@H](Cc1ccc(O)cc1)C(=O)N[C@H]1CSSC[C@@H](C(=O)N[C@@H](Cc2c[nH]c3ccc(F)cc23)C(=O)N[C@@H](Cc2ccccc2)C(=O)N[C@@](C)(CO)C(=O)N[C@H](CCCCNC(=O)CN2CCN(CC(=O)O)CCN(CC(=O)O)CCN(CC(=O)O)CC2)C(N)=O)NC(=O)[C@H](Cc2ccc(O)cc2)NC(=O)[C@H](C(C)C)NC(=O)[C@H](CC(=O)O)NC(=O)[C@H](Cc2ccc(O)cc2)NC(=O)[C@H](CCCCN)NC(=O)CNC(=O)[C@H](C(C)C)NC1=O [compound 147, Ac-hLeu-Y-C-V-G-K-Y-D-V-Y-C-5FW-F-aMeSer-dLys(DOTA)-CONH2] (Ac-[hLeu]YCVGKYDVYC[Trp(5-F)]F[αMeS][dK](DOTA)-NH2; disulfide 3-11)
< 1 nM	CC(=O)N[C@@H](CCC(C)C)C(=O)N[C@@H](Cc1ccc(O)cc1)C(=O)N[C@H]1CSSC[C@@H](C(=O)N[C@@H](Cc2c[nH]c3ccc(F)cc23)C(=O)N[C@@H](Cc2ccccc2)C(=O)N(C)[C@@H](CO)C(=O)N[C@H](CCCCNC(=O)CN2CCN(CC(=O)O)CCN(CC(=O)O)CCN(CC(=O)O)CC2)C(N)=O)NC(=O)[C@H](Cc2ccc(O)cc2)NC(=O)[C@H](C(C)C)NC(=O)[C@H](CC(=O)O)NC(=O)[C@H](Cc2ccc(O)cc2)NC(=O)[C@H](CCCCN)NC(=O)CNC(=O)[C@H](C(C)C)NC1=O [compound 148, Ac-hLeu-Y-C-V-G-K-Y-D-V-Y-C-5FW-F-NMeSer-dLys(DOTA)-CONH2] (Ac-[hLeu]YCVGKYDVYC[Trp(5-F)]F[NMeS][dK](DOTA)-NH2; disulfide 3-11)
< 1 nM	CC(=O)N[C@@H](CCC(C)C)C(=O)N[C@@H](Cc1ccc(O)cc1)C(=O)N[C@H]1CSSC[C@@H](C(=O)N[C@@H](Cc2c[nH]c3ccccc23)C(=O)N[C@@H](Cc2ccccc2)C(=O)N[C@H](C(=O)N[C@H](CCCCNC(=O)CN2CCN(CC(=O)O)CCN(CC(=O)O)CCN(CC(=O)O)CC2)C(N)=O)C(C)(C)O)NC(=O)[C@H](Cc2ccc(O)cc2)NC(=O)[C@H](C(C)C)NC(=O)[C@H](CC(=O)O)NC(=O)[C@H](Cc2ccc(O)cc2)NC(=O)[C@H](CCCCN)NC(=O)CNC(=O)[C@H](C(C)C)NC1=O [compound 149, Ac-hLeu-Y-C-V-G-K-Y-D-V-Y-C-W-F-hydroxyVal-dLys(DOTA)-CONH2] (Ac-[hLeu]YCVGKYDVYCWF[Val(3-OH)][dK](DOTA)-NH2; disulfide 3-11)

The remaining lines, values behind:

SMILES	Kd
CC(=O)N[C@@H](CCC(C)C)C(=O)N[C@@H](Cc1ccc(O)cc1)C(=O)N[C@H]1CSSC[C@@H](C(=O)N[C@@H](Cc2c[nH]c3ccccc23)C(=O)N[C@@H](Cc2ccccc2)C(=O)N[C@H](C(=O)N[C@H](CCCCNC(=O)CN2CCN(CC(=O)O)CCN(CC(=O)O)CCN(CC(=O)O)CC2)C(N)=O)[C@@H](C)O)NC(=O)[C@H](Cc2ccc(O)cc2)NC(=O)[C@H](C(C)C)NC(=O)[C@H](CC(=O)O)NC(=O)[C@H](CC2CCNCC2)NC(=O)[C@H](CCCCN)NC(=O)CNC(=O)[C@H](C(C)C)NC1=O [compound 135, Ac-hLeu-Y-C-V-G-K-PipAla-D-V-Y-C-W-F-Thr-dLys(DOTA)-CONH2] (Ac-[hLeu]YCVGK[Ala(piperidin-4-yl)]DVYCWFT[dK](DOTA)-NH2; disulfide 3-11)	1 to 10 nM
CC(=O)N[C@@H](CCC(C)C)C(=O)N[C@@H](Cc1ccc(O)cc1)C(=O)N[C@H]1CSSC[C@@H](C(=O)N[C@@H](Cc2c[nH]c3ccccc23)C(=O)N[C@@H](Cc2ccccc2)C(=O)N[C@H](C(=O)N[C@H](CCCCNC(=O)CN2CCN(CC(=O)O)CCN(CC(=O)O)CCN(CC(=O)O)CC2)C(N)=O)[C@@H](C)O)NC(=O)[C@H](Cc2ccc(O)cc2)NC(=O)[C@H](C2CCCCC2)NC(=O)[C@H](CC(=O)O)NC(=O)[C@H](Cc2ccc(O)cc2)NC(=O)[C@H](CCCN)NC(=O)CNC(=O)[C@H](C(C)(C)C)NC1=O [compound 138, Ac-hLeu-Y-C-Tbg-G-Orn-Y-D-Chg-Y-C-W-F-Thr-dLys(DOTA)-CONH2] (Ac-[hLeu]YC[Tle]G[Orn]YD[Chg]YCWFT[dK](DOTA)-NH2; disulfide 3-11)	1 to 10 nM
CC(=O)N[C@@H](CCC(C)C)C(=O)N[C@@H](Cc1ccc(O)cc1)C(=O)N[C@H]1CSSC[C@@H](C(=O)N[C@@H](Cc2c[nH]c3ccccc23)C(=O)N[C@@H](Cc2ccccc2)C(=O)N[C@H](C(=O)N[C@H](CCCCNC(=O)CN2CCN(CC(=O)O)CCN(CC(=O)O)CCN(CC(=O)O)CC2)C(N)=O)[C@@H](C)O)NC(=O)[C@H](Cc2ccc(O)cc2)NC(=O)[C@H](C(C)C)NC(=O)[C@H](CC(=O)O)NC(=O)[C@H](Cc2ccc(C(=O)O)cc2)NC(=O)[C@H](CCCCN)NC(=O)CNC(=O)[C@H](C(C)(C)C)NC1=O [compound 139, Ac-hLeu-Y-C-Tbg-G-K-4COOHPhe-D-V-Y-C-W-F-Thr-dLys(DOTA)-CONH2] (Ac-[hLeu]YC[Tle]GK[Phe(4-COOH)]DVYCWFT[dK](DOTA)-NH2; disulfide 3-11)	< 1 nM
CC(=O)N[C@@H](CCC(C)C)C(=O)N[C@@H](Cc1ccc(O)cc1)C(=O)N[C@H]1CSSC[C@@H](C(=O)N[C@@H](Cc2c[nH]c3ccccc23)C(=O)N[C@@H](Cc2ccccc2)C(=O)N[C@H](C(=O)N[C@H](CCCCNC(=O)CN2CCN(CC(=O)O)CCN(CC(=O)O)CCN(CC(=O)O)CC2)C(N)=O)[C@@H](C)O)NC(=O)[C@H](Cc2ccc(O)cc2)NC(=O)[C@H](C(C)C)NC(=O)[C@H](CC(=O)O)NC(=O)[C@H](Cc2ccc(C(=O)O)cc2)NC(=O)[C@H](CCCCN)NC(=O)CN(C)C(=O)[C@H](C(C)(C)C)NC1=O [compound 140, Ac-hLeu-Y-C-Tbg-Sar-K-4COOHPhe-D-V-Y-C-W-F-Thr-dLys(DOTA)-CONH2] (Ac-[hLeu]YC[Tle][Sar]K[Phe(4-COOH)]DVYCWFT[dK](DOTA)-NH2; disulfide 3-11)	1 to 10 nM
CC(=O)N[C@@H](CCC(C)C)C(=O)N[C@@H](Cc1ccc(O)cc1)C(=O)N[C@H]1CSSC[C@@H](C(=O)N[C@@H](Cc2c[nH]c3ccccc23)C(=O)N[C@@H](Cc2ccccc2)C(=O)N2CCC[C@H]2C(=O)N[C@@H](CCCCNC(=O)CN2CCN(CC(=O)O)CCN(CC(=O)O)CCN(CC(=O)O)CC2)C(N)=O)NC(=O)[C@H](Cc2ccc(O)cc2)NC(=O)[C@H](C(C)C)NC(=O)[C@H](CC(=O)O)NC(=O)[C@H](Cc2ccc(O)cc2)NC(=O)[C@H](CCCCN)NC(=O)CNC(=O)[C@H](C(C)C)NC1=O [compound 141, Ac-hLeu-Y-C-V-G-K-Y-D-V-Y-C-W-F-Pro-dLys(DOTA)-CONH2] (Ac-[hLeu]YCVGKYDVYCWFPK(DOTA)-NH2; disulfide 3-11)	1 to 10 nM

Same assay, conditions: SPR KD—37° C., 4Ig B7-H3; 37° C. flow cell temperature

Kd	SMILES
< 1 nM	CC(=O)N[C@@H](CCC(C)C)C(=O)N[C@@H](Cc1ccc(O)cc1)C(=O)N[C@H]1CSSC[C@@H](C(=O)N[C@@H](Cc2c[nH]c3ccccc23)C(=O)N[C@@H](Cc2ccccc2)C(=O)N[C@H](C(=O)N[C@H](C)C(N)=O)[C@@H](C)O)NC(=O)[C@H](Cc2ccc(O)cc2)NC(=O)[C@H](C(C)C)NC(=O)[C@H](CC(=O)O)NC(=O)[C@H](Cc2ccc(OCCNC(=O)CN3CCN(CC(=O)O)CCN(CC(=O)O)CCN(CC(=O)O)CC3)cc2)NC(=O)[C@H](CCCCN)NC(=O)CNC(=O)[C@H](C(C)C)NC1=O [compound 136, Ac-hLeu-Y-C-V-G-K-AEF(DOTA)-D-V-Y-C-W-F-Thr-dAla-CONH2] (Ac-[hLeu]YCVGK[AEF](DOTA)DVYCWFT[dA]-NH2; disulfide 3-11)
